According to patent US20060069132A1, “Azolecarboxamide herbicides” (priority 2004, published 2006):

Tests used:
pigweed = experiment: Test C pre-/postemergence herbicide test; format: in vivo, Amaranthus retroflexus
Method in brief: (§1)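 Seeds were planted and sprayed preemergence with test chemicals in a non-phytotoxic solvent mixture containing surfactant; postemergence treatments went onto plants 2 to 18 cm tall (1- to 4-leaf stage). After 12 to 14 days in a greenhouse, injury was rated visually against untreated controls on a 0–100 scale.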

common ragweed = experiment: Test C pre-/postemergence herbicide test; format: in vivo, Ambrosia elatior; parameters: key to Plant response rating, Ragweed: 0 = no effect, 100 = complete control
Method in brief: as §1

large crabgrass = experiment: Test C pre-/postemergence herbicide test; format: in vivo, Digitaria sanguinalis
Method in brief: as §1

[1] = system: common (oilseed) sunflower; experiment: Test C pre-/postemergence herbicide test; format: in vivo, Helianthus annuus
Method in brief: as §1

lambsquarters = experiment: Test C pre-/postemergence herbicide test; format: in vivo, Chenopodium album
Method in brief: as §1

ducksalad = experiment: Test C flooded paddy test; format: in vivo, Heteranthera limosa; settings: for Plant response rating, Ducksalad: 500 g ai/ha, visual rating after 12 to 14 days
[2] = 125 g ai/ha, scale 0 (no effect) to 100 (complete control), visual, 12 to 14 days, preemergence
[3] = 62 g ai/ha, scale 0 to 100 (0 no effect, 100 complete control)
[4] = 125 g ai/ha, scale 0 to 100 (0 no effect, 100 complete control)
[5] = 250 g ai/ha, scale of 0 to 100, 0 is no effect, 100 is complete control
[6] = scale 0 to 100 (0 no effect, 100 complete control)
[7] = Postemergence, 500 g ai/ha, scale 0 to 100
[8] = Postemergence, 250 g ai/ha, scale 0 to 100, 0 no effect, 100 complete control
[9] = Preemergence, 500 g ai/ha, scale 0 to 100, 0 no effect, 100 complete control
[10] = postemergence, 125 g ai/ha, scale 0 to 100
[11] = postemergence, 62 g ai/ha, scale 0 to 100
[12] = 62 g ai/ha, preemergence, scale 0 to 100
[13] = 250 g ai/ha, scale 0-100, preemergence
[14] = 500 g ai/ha, scale 0 to 100 (0 no effect, 100 complete control), visual, 12 to 14 days, preemergence

What does the source list for `CC(=O)c1cccc(NC(=O)c2cc(C(C)(C)C)nn2CCF)c1` [Compound 128]?
Plant response rating, Pigweed (pigweed; [2]): 60; Plant response rating (0 = no effect, 100 = complete control), Ragweed (common ragweed; 62 g ai/ha, preemergence): 10; Plant response rating, Ragweed (common ragweed; [2]): 20; Plant response rating (0 = no effect, 100 = complete control), Crabgrass, Large (large crabgrass; 62 g ai/ha, preemergence): 100; Plant response rating, Crabgrass, Large (large crabgrass; [2]): 100; Plant response rating, Sunflower [1, 2]: 50; Plant response rating, Lambsquarters (lambsquarters; [2]): 30; Ducksalad plant response rating (ducksalad; [3]): 80; Ducksalad plant response rating (ducksalad; [4]): 95; Ducksalad plant response rating (ducksalad; [5]): 95; Plant response rating, Ducksalad (ducksalad; [6]): 95

Which results are given for `C#CCNC(=O)c1cccc(NC(=O)c2cc(C(C)(C)C)nn2CC)n1` [Compound 147]?
Plant response rating (0 = no effect, 100 = complete control), Pigweed (pigweed; 62 g ai/ha, preemergence): 20; Plant response rating, Pigweed (pigweed; [2]): 90; Pigweed plant response rating (pigweed; [7]): 100; Plant response rating, Pigweed (pigweed; [8]): 100; Pigweed plant response rating (pigweed; [9]): 100; Plant response rating, Pigweed (pigweed; [10]): 90; Plant response rating, Pigweed (pigweed; [11]): 90; Plant response rating (0 = no effect, 100 = complete control), Ragweed (common ragweed; 62 g ai/ha, preemergence): 0; Plant response rating, Ragweed (common ragweed; [2]): 0; Ragweed plant response rating (common ragweed; [7]): 10; Plant response rating, Ragweed (common ragweed; [8]): 10; Ragweed plant response rating (common ragweed; [9]): 70; Plant response rating, Ragweed (common ragweed; [10]): 0; Plant response rating, Ragweed (common ragweed; [11]): 0; Plant response rating (0 = no effect, 100 = complete control), Crabgrass, Large (large crabgrass; 62 g ai/ha, preemergence): 0; Plant response rating, Crabgrass, Large (large crabgrass; [2]): 50; Plant response rating, Crabgrass, Large (large crabgrass; 250 g ai/ha, scale 0 to 100 (0 no effect, 100 complete control), visual, 12 to 14 days, preemergence): 90; Crabgrass, Large plant response rating (large crabgrass; [7]): 60; Plant response rating, Crabgrass, Large (large crabgrass; [8]): 10; Crabgrass, Large plant response rating (large crabgrass; [9]): 100; Plant response rating, Crabgrass, Large (large crabgrass; [10]): 0; Plant response rating, Crabgrass, Large (large crabgrass; [11]): 0; Plant response rating (0 = no effect, 100 = complete control), Sunflower ([1]; 62 g ai/ha, preemergence): 0; Plant response rating, Sunflower [1, 2]: 0; Sunflower plant response rating [1, 9]: 0; Plant response rating (0 = no effect, 100 = complete control), Lambsquarters (lambsquarters; 62 g ai/ha, preemergence): 70; Plant response rating, Lambsquarters (lambsquarters; [2]): 90; Lambsquarters plant response rating (lambsquarters; [7]): 100; Plant response rating, Lambsquarters (lambsquarters; [8]): 100; Lambsquarters plant response rating (lambsquarters; [9]): 100; Plant response rating, Lambsquarters (lambsquarters; [10]): 100; Plant response rating, Lambsquarters (lambsquarters; [11]): 90; Ducksalad plant response rating (ducksalad; 16 g ai/ha, scale 0 to 100): 0; Ducksalad plant response rating (ducksalad; 31 g ai/ha, scale 0 to 100): 0; Ducksalad plant response rating (ducksalad; [3]): 0; Ducksalad plant response rating (ducksalad; [4]): 0

With `CCn1nc(C(C)(C)C)cc1C(=O)Nc1ccc(OC)c(OC)c1` [Compound 298] as the molecule, how does the “Plant response rating, Pigweed” value (pigweed; [12]) read?
The value was 100.

And the “Plant response rating, Pigweed” value (pigweed; [2])?
Its value is 100.

What about the “Plant response rating, Pigweed” value (pigweed; [13]) of the same molecule?
The value was 100.

And the “Plant response rating, Pigweed” value (pigweed; [14])?
Its value is 100.

What about the “Plant response rating, Ragweed” value (common ragweed; [12]) of the same molecule?
Its value is 0.

And the “Plant response rating, Ragweed” value (common ragweed; [13])?
The value was 0.

And the “Plant response rating, Ragweed” value (common ragweed; [14])?
Its value is 0.

And the “Plant response rating, Crabgrass, Large” value (large crabgrass; [12])?
The value was 85.

And the “Plant response rating, Crabgrass, Large” value (large crabgrass; [2])?
Its value is 95.

What about the “Plant response rating, Crabgrass, Large” value (large crabgrass; [13]) of the same molecule?
The value was 100.

What about the “Plant response rating, Crabgrass, Large” value (large crabgrass; [14]) of the same molecule?
Its value is 100.

What about the “Plant response rating, Sunflower” value [1, 12] of the same molecule?
Its value is 0.

What about the “Plant response rating, Sunflower” value [1, 13] of the same molecule?
Its value is 0.

And the “Plant response rating, Sunflower” value [1, 14]?
The value was 0.

What about the “Plant response rating, Lambsquarters” value (lambsquarters; [12]) of the same molecule?
Its value is 100.

And the “Plant response rating, Lambsquarters” value (lambsquarters; [2])?
Its value is 100.

What about the “Plant response rating, Lambsquarters” value (lambsquarters; [13]) of the same molecule?
The value was 100.

And the “Plant response rating, Lambsquarters” value (lambsquarters; [14])?
Its value is 100.

What about the “Ducksalad plant response rating” value (ducksalad; 62 g ai/ha, scale 0 to 100) of the same molecule?
The value was 35.

And the “Ducksalad plant response rating” value (ducksalad; [4])?
The value was 40.

And the “Ducksalad plant response rating” value (ducksalad; [5])?
The value was 80.

What about the “Plant response rating, Ducksalad” value (ducksalad; [6]) of the same molecule?
Its value is 90.
